Earlier results on three molecules are cited in US6284909A, “Preparations of thiophosphites and thiophosphonates” (University of Southern California, priority 2000, dated 2001).

By IC50 is commonly meant the concentration needed to halve the response being measured.

Like-named read-outs stand apart in the source and are kept apart here.

One series has as its system H9 cells. The conditions noted are these: at effective antiviral doses.
Series [1] relates to DNA polymerase of Cytomegalovirus (CMV).
Series [2] relates to Herpesvirus DNA polymerases.
Series [3] has as its target HIV reverse transcriptase.
For series [4] the following is noted: clinical trials.
The conditions of series [5]: clinical trials. The source holds these as a separate data set.
A further series has as its system CMV. The conditions noted are these: in culture.
Series [6] has as its system HIV.
In series [7] the test system is HIV. The conditions noted are these: U.S. Pat. Nos. 5,072,032 and 5,183,812.

`O=C(O)P(=O)(O)O` [foscarnet, Trisodium phosphonoformate]: the “toxicity to cultured H9 cells” value with H9 cells is given as “non-toxic”. Moreover, the “inhibition of the DNA polymerase of Cytomegalovirus (CMV)” value in series [1] is “inhibit”. Also, the “inhibition of several Herpesvirus DNA polymerases” value in series [2] is given as “inhibit several Herpesvirus DNA polymerases”. Besides, in the series with human DNA polymerases, the “inhibition of human DNA polymerases, compared with Thiovir” value is on record as “more inhibitory to human DNA polymerases”. Further, the IC50 in [3] (trisodium phosphonoformate, known, read-out: IC50 (HIV reverse transcriptase)) was around 1000 nM.
Take `O=C(O)P(=O)(O)O` [PFA, phosphonoformic acid]: in series [4], the “characterization of nephrotoxicity: serum creatinine” value is listed as “increased serum creatinine”, the “characterization of nephrotoxicity: tubulopathy” value is given as “acute toxic tubolopathy” and the nephrotoxicity entry is on record as “reversible nephrotoxity”. Besides, the oral bioavailability result in [5] is on record as “poor”. Besides, in the series with HIV-1, the “inhibition of HIV-1” value is “shown to inhibit HIV-1”.
Take `O=C(O)P(O)(O)=S` [Thiovir®, trisodium thiophosphonoformate]: the “toxicity to cultured H9 cells” value with H9 cells is “non-toxic”. Besides, in the series with CMV, the “antiviral activity against CMV-infected cells” value was “exhibited antiviral activity against CMV-infected cells”. Also, the “selectivity of inhibition of isolated HIV RT” value in [3] (in vitro, vs human DNA polymerases) is given as “selectively inhibited”. The IC50 in series [3] (isolated HIV RT, in vitro, Thiovir, read-out: IC50) was around 1000 nM. Moreover, the “antiviral activity against HIV compared to DNA polymerase inhibiting activity” value with HIV [6] is “unexpectedly high antiviral activity against HIV”. Further, in the series on HIV [7], the “effectiveness against HIV, the AIDS virus” value was “effective against HIV”.
